Results taken from patent publication US5444063A, “Enantiomerically pure β-D-dioxolane nucleosides with selective anti-Hepatitis B virus activity” (priority 1992, dated 1995).
Where “and” joins values, the source holds several entries; their conditions need not be identical. Equal values may be shown once. Read-outs that look alike come from different tables or passages of the source.

Tests used:
[1] = Toxicity analysis of test compounds in 2.2.15 cells (neutral red dye uptake); assay type: cell-based; settings: human
Method: Toxicity analyses were performed in order to assess whether any observed antiviral effects are due to a general effect on cell viability. The method used was based on the uptake of neutral red dye, a standard and widely used assay for cell viability in a variety of virus-host systems, including HSV (herpes simplex virus) and HIV. Details of the procedure are provided in the toxicity table legends.
The test compounds were used in the form of 40 mM stock solutions in DMSO (frozen on dry ice). Daily aliquots of the test samples were made and frozen at -20° C. so that each individual aliquot would be subjected to a single freeze-thaw cycle. The daily test aliquots were thawed, suspended into culture medium at room temperature and immediately added to the cell cultures° The compounds were tested at 0.0 and 1 μM for antiviral activity. The compounds were tested for toxicity at concentrations up to 300 μM.
Toxicity analyses were performed in 96-well flat bottomed tissue culture plates. Cells for the toxicity analyses were cultured and treated with test compounds with the same schedule as used for the antiviral evaluations. Each compound was tested at 4 concentrations, each in triplicate cultures. Uptake of neutral red dye was used to determine the relative level of toxicity. The absorbance of internalized dye at […] (A510) was used for the quantitative analysis. Values are presented as a percentage of the average A510 values (±standard deviations) in 9 separate cultures of untreated cells maintained on the same 96-well plate as the test compounds.

HBV [2] = assay: Effect of nucleosides on HBV production in 2.2.15 cells (HBV virion DNA and intracellular HBV DNA); assay type: cell-based, Hepatitis B virus; settings: for inhibition at 10 µM: Hepatitis B virus
Method: The ability of β-D-dioxolane-nucleosides to inhibit HBV can be measured by various experimental techniques. The assay used herein to evaluate the ability of the disclosed compounds to inhibit the replication of HBV is described in detail in Korba and Gerin, Antiviral Res. 19:55-70 (1992). […] The other compounds disclosed herein are evaluated similarly.
The antiviral evaluations were performed on two separate passages of cells, two cultures per passage (4 cultures total). All wells, in all plates, were seeded at the same density and at the same time.
Due to the inherent variations in the levels of both intracellular and extracellular HBV DNA, only depressions greater than 3.0-fold (for HBV virion DNA) or 2.5-fold (for HBV DNA replication intermediates) from the average levels for these HBV DNA forms in untreated cells are generally considered to be statistically significant [P<0.05] (Korba and Gerin, Antiviral Res. 19: 55-70, 1992). The levels of integrated HBV DNA in each cellular DNA preparation (which remain constant on a per cell basis in these experiments) were used to calculate the levels of intracellular HBV DNA forms, thereby eliminating technical variations inherent in the blot hybridization assays.
The test compounds were used in the form of 40 mM stock solutions in DMSO (frozen on dry ice). Daily aliquots of the test samples were made and frozen at -20° C. so that each individual aliquot would be subjected to a single freeze-thaw cycle. […] The compounds were tested for toxicity at concentrations up to 300 μM.

2.2.15 cells = settings: versus untreated cultures; Korba and Gerin 1992; read-out: Concentration at which a 2-fold reduction in dye uptake is typically observed; cited from earlier work
[3] = Toxicity analysis of test compounds in 2.2.15 cells (neutral red dye uptake); assay type: cell-based; settings: human; remark: listed apart in the source
HBV [4] = settings: relative to average levels in untreated cells; Korba and Gerin 1992; read-out: Concentration at which a 90% depression of HBV RI is typically observed; cited from earlier work
[5] = 10 μM, individual culture, listed as DDC

For Nc1ccn([C@H]2CC[C@@H](CO)O2)c(=O)n1 [2',3'-ddC, 2',3'-dideoxycytosine, reference compound], the viability at 30 µM ([1]; 30 μM) was 101 ± 1%, the viability at 100 µM ([1]; 100 μM) was 97 ± 2% and the viability at 300 µM ([1]; 300 μM) was 44 ± 1%. The “HBV virion DNA, day 0” value (HBV [2]; [5]) was 66 pg/ml of cultured medium and 58 pg/ml of cultured medium and 67 pg/ml of cultured medium and 51 pg/ml of cultured medium, the “HBV virion DNA, day 3” value (HBV [2]; [5]) was 50 pg/ml of cultured medium and 52 pg/ml of cultured medium and 51 pg/ml of cultured medium and 48 pg/ml of cultured medium and the “HBV virion DNA, day 6” value (HBV [2]; [5]) was 20 pg/ml of cultured medium and 13 pg/ml of cultured medium and 19 pg/ml of cultured medium and 17 pg/ml of cultured medium. For the same compound, the “HBV virion DNA, day 9” value (HBV [2]; [5]) was 2 pg/ml of cultured medium and 3 pg/ml of cultured medium, the “Intracellular HBV DNA on Day 10, Mono (episomal 3.2kB HBV genomes)” value (HBV [2]; [5]) was 0.9 pg/μM of cellular DNA and 1.0 pg/μM of cellular DNA and 1.4 pg/μM of cellular DNA and 1.1 pg/μM of cellular DNA and the “Intracellular HBV DNA on Day 10, RI (HBV DNA replication intermediates)” value (HBV [2]; [5]) was 6 pg/μM of cellular DNA and 4 pg/μM of cellular DNA and 5 pg/μM of cellular DNA and 7 pg/μM of cellular DNA. For the same compound, the “HBV virion DNA, day 0, mean” value (HBV [2]; 10 μM, mean of 4 cultures) was 60.50 pg/ml of cultured medium, the “HBV virion DNA, day 3, mean” value (HBV [2]; 10 μM, mean of 4 cultures) was 50.25 pg/ml of cultured medium and the “HBV virion DNA, day 6, mean” value (HBV [2]; 10 μM, mean of 4 cultures) was 17.25 pg/ml of cultured medium. The “HBV virion DNA, day 9, mean” value (HBV [2]; 10 μM, mean of 4 cultures) was 2.25 pg/ml of cultured medium, the “Intracellular HBV DNA on Day 10, Mono, mean” value (HBV [2]; 10 μM, mean of 4 cultures) was 1.10 pg/μM of cellular DNA and the “Intracellular HBV DNA on Day 10, RI, mean” value (HBV [2]; 10 μM, mean of 4 cultures) was 5.50 pg/μM of cellular DNA. The inhibition at 10 µM (HBV [2]; 0 h, read-out: % inhibition, HBV virion DNA, day 0) was 3.97%, the inhibition at 10 µM (HBV [2]; 72 h, read-out: % inhibition, HBV virion DNA, day 3) was 22.4% and the inhibition at 10 µM (HBV [2]; 144 h, read-out: % inhibition, HBV virion DNA, day 6) was 77.5%. For the same compound, the inhibition at 10 µM (HBV [2]; 216 h, read-out: % inhibition, HBV virion DNA, day 9) was 97%, the inhibition at 10 µM (HBV [2]; 240 h, read-out: % inhibition, intracellular HBV DNA Mono, Day 10) was 56.4% and the inhibition at 10 µM (HBV [2]; 240 h, read-out: % inhibition, intracellular HBV DNA RI, Day 10) was 92.5%. For the same compound, the “Depression of HBV DNA replication” value (HBV [2]; positive treatment control, at the concentration used) was “significant depressions of HBV DNA replication”, the CC50 (2.2.15 cells) was 150 to 190 µM and the viability at 1000 µM [3] was 5 ± 1%. For the same compound, the EC90 (HBV [4]) was 9 to 12 µM.
